Test [1] concerns duckweed Lemnna paucicostata. Briefly: Growth of duckweed (increase in leaf area). To be noted: leaf area after 8-10 days, read-out: Growth inhibition (% of the control); for inhibition at 100 µM: use concentration 10^-4 M; for inhibition at 10 µM: use concentration 10^-5 M; for inhibition at 1 µM: use concentration 10^-6 M. The test is classed as in vivo. As to the method:
The effect of the herbicidal compounds according to the invention on the growth of duckweed can be seen from the following test results: p The duckweed Lemnna paucicostata was grown under sterile conditions in 250 ml glass vessels containing 100 ml of inorganic nutrient solution supplemented with 1% sucrose, as described by Grossmann et al., Pesticide Science 35 (1992), 283-289. At the beginning of the test, 150 μl of a solution of active ingredient in acetone (stock solution: 100-fold concentrated) were pipetted into Petri dishes (diameter 6 cm, height 1.5 cm; Greiner, Frickenhausen) containing 15 ml of nutrient solution (without added sucrose). Only the solvent component of the active ingredient solution was added to the nutrient solution for the control tests. Then, 4 Lemna plants were introduced into each dish, the dishes were covered with lids and incubated in a controlled-environment cabinet at 25° C. under permanent light conditions (Phillips TL white neon tubes, approx. 40 μmol m^-2 s^-1; λ=400-750 nm). After 8-10 days, the increase in leaf area was determined using an imaging apparatus (Imago, Compulog Computer Syst., Boblingen) as growth parameter, and this was used to calculate the % growth inhibition relative to the control.

Test [2] concerns the target T1, ferredoxin:NADP reductase (Spinacia oleracea, UniProt P00455).
T1 construct: from spinach leaves--obtainable from Sigma, Germany; purchased Sigma, Germany; host or cells: spinach leaves
T1 sequence (P00455 56-369): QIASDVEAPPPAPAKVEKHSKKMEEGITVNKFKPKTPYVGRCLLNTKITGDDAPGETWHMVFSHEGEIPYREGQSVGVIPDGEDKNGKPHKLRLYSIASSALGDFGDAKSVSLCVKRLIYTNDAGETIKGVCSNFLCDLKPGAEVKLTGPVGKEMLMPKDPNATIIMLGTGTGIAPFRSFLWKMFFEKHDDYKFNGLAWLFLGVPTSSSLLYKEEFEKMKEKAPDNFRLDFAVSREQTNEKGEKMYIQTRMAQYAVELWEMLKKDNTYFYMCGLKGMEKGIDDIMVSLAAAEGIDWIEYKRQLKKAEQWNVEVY
Briefly: Inhibition of ferredoxin reductase reaction of ferredoxin:NADP reductase. To be noted: 1 mM. The test is classed as biochemical, spinach. As to the method:
(§1) Ferredoxin:NADP reductase not only catalyzes the physiologically relevant, reversible reaction of NADP with ferrecoxin (ferredoxin reductase activity), but also the NADPH-dependent reduction of potassium hexacyanoferrate(III) (diaphorase activity). Methods for measuring these reactions are described in the literature (Meth. Enzymol., Volumes 23 and 69).
The ferredoxin reductase activity can be determined by incubating, for example, chloroplast extracts or isolated ferredoxin:NADP reductase (Sigma) in 100 mM Tris/HCl buffer, pH 7.8+0.2 mM NADPH+0.65 mg/ml cytochrome C+0.1 mg/ml ferredoxin at 25° C. and measuring the change in the absorption at 550 nm, or the difference in absorption change at 550 nm and 540 nm. An incubation mixture without ferredoxin can be used as blank value.
(§2) The action of a test substance can be tested by dissolving the substance in a suitable solvent such as, for example, dimethyl sulfoxide and pipetting an aliquot of the solution to the above-described incubation mixture. A corresponding aliquot of the pure solvent may be used as control. The action of the test substance can be determined by comparing the absorption changes of the respective incubation batches.

The target in test [3] is T1, ferredoxin:NADP reductase. Briefly: Inhibition of diaphorase reaction of ferredoxin:NADP reductase. It counts as biochemical, spinach. As to the method:
as §1
The diaphorase activity can be determined by incubating, for example, chloroplasts or isolated ferredoxin:NADP reductase (Sigma) in 100 mM Tris/HCl buffer, pH 8.2+0.5 mM potassium hexacyanoferrate(III)+0.5 mM NADPH or an NADPH-regenerating system such as, for example, 0.5 mM NADP+2.5 mM glucose-6-phosphate+1 unit/ml glucose-6-phosphate dehydrogenase at 25° C. and monitoring the decrease in absorption at 420 nm. An incubation mixture without ferredoxin:NADP reductase may be used as blank value.
as §2

In general, inhibition refers to the drop in the measured response relative to a control, in per cent.

Consider `CCCCCCCCCCCCCCCCOc1ccc(C(=O)O)cc1S(=O)(=O)NN=c1sc2ccc(S(=O)(=O)O)cc2n1C` [A.28], for which, in test [1], the inhibition at 100 µM is 60%, the inhibition at 10 µM came out at 42% and the inhibition at 1 µM turned out to be 26%.
Consider `CCCCCCCCCCCCCCCCS(=O)(=O)c1ccc(S(=O)(=O)NN=c2sc3cc(S(=O)(=O)O)ccc3n2C)cc1NC(C)=O` [A.46], for which, in test [1], the inhibition at 100 µM was 56%, the inhibition at 10 µM was determined as 33% and the inhibition at 1 µM is 13%.
Regarding `CCCCCCCCCCCCCCCCS(=O)(=O)Nc1cccc(S(=O)(=O)NN=c2sc3ccc(S(=O)(=O)C(F)F)cc3n2C)c1` [A.47], the inhibition at 100 µM in test [1] was 18%.
On to `CCCCCCCCCCCCCCCCS(=O)(=O)N(C)c1cccc(S(=O)(=O)NN=c2sc3ccc(S(=O)(=O)O)cc3n2C)c1` [A.48], for which, in test [1], the inhibition at 100 µM was 42%, the inhibition at 10 µM worked out at 34% and the inhibition at 1 µM came to 28%.
On the same counts, the results for `CCCCCCCCCCCCCCCCS(=O)(=O)c1ccc(S(=O)(=O)NN=c2sc3ccc(S(=O)(=O)O)cc3n2C)cc1C(=O)O` [A.49] are 77%, 49% and 19%.
In the case of `CCCCCCCCCCCCCCCCNS(=O)(=O)c1ccc(S(=O)(=O)NN=c2sc3ccccc3n2C)cc1` [A.51], the inhibition at 100 µM in test [1] is 29%.
As to `CCCCCCCCCCCCCCCCNS(=O)(=O)c1ccc(S(=O)(=O)NN=c2sc3ccc(S(=O)(=O)O)cc3n2C)cc1` [A.52], in test [1], the inhibition at 100 µM stood at 89% and the inhibition at 10 µM amounted to 12%.
Turning to `CCCCCCCCCCCCCCCCNS(=O)(=O)c1ccc(S(=O)(=O)NN=c2sc3ccc(S(=O)(=O)C(F)F)cc3n2C)cc1` [A.55], the inhibition at 100 µM in test [1] worked out at 28%.
For the compound `CCCCCCCCCCCCCCCCS(=O)(=O)c1ccc(S(=O)(=O)O)cc1C(=O)NN=c1sc2ccc(S(=O)(=O)O)cc2n1C` [B.3], the inhibition at 1000 µM in test [2] came out at 90%. For the same compound, in test [2] (mean +/- standard deviation of 6 experiments, control (DMSO) 0.692, blank without ferredoxin 0.027), the “E (550 -540) (ferredoxin reductase reaction)” value is listed as 0.093 +/- 0.026. Further, in test [1], the inhibition at 100 µM came out at 96%, the inhibition at 10 µM is 66% and the inhibition at 1 µM was determined as 54%. For the same compound, the inhibition at 50 µM in test [3] worked out at 102%. Also, the “AU/min *10^-3 (diaphorase reaction, decrease in absorption at 420 nm)” value in test [3] (50 μM, mean +/- standard deviation of 6 experiments, control (DMSO) 31.3, blank without enzyme 9.4) is recorded as 9.0 +/- 1.4 AU/min *10^-3.

For the origin of these results see patent US6124242A, “Herbicidal compositions and processes based on ferrodoxin:NADP reductase inhibitors” (BASF Aktiengesellschaft, priority 1998, dated 2000).
